Measurements taken from paper PMC9138090, “Study on the Neuroprotective, Radical-Scavenging and MAO-B Inhibiting Properties of New Benzimidazole Arylhydrazones as Potential Multi-Target Drugs for the Treatment of Parkinson’s Disease” (Antioxidants, 2022).

Key:
[1] = Fe(II)-induced oxidative damage of lecithin (TBA-RS); details: 90 µmol/L; for sample/control absorbance ratio (% of the control), lecithin peroxidation: lecithin 1 mg/mL, FeCl2 0.1 mmol/L
Protocol: The classical method of determining the TBA-reactive substances at 532 nm as described by Asakawa and Matsushita has been used. Two groups of measurement compositions named controls and samples were prepared in phosphate buffer (K2HPO4/KH2PO4, pH 7.4) for each of the used substrates. Both of them contained equivalent concentrations of lecithin (1 mg/mL) or 2-deoxyribose (0.5 mmol/L) and FeCl2 (0.1 mmol/L). In the controls, the tested hydrazones have been omitted and in the samples the effect of the newly designed compounds at the concentrations indicated below the figures has been determined. The obtained samples were incubated at 37 °C for 30 min. The reaction was stopped, and after adding 0.5 mL 2.8% trichloroacetic acid and 0.5 mL of thiobarbituric acid, the samples were heated in boiling water for 20 min. The lecithin containing samples were centrifuged at 3000 rpm for 20 min and the supernatant was aspired out. The results have been presented as a percentage of the control sample, treated only with ferrous iron where we expected maximum oxidative damage under the described conditions.

[2] = MTT cytotoxicity on SH-SY5Y cells; format: cell-based, human; details: human, SH-SY5Y neuroblastoma cells, MTT test, 24 h incubation; read-out: IC50, in vitro cytotoxicity on SH-SY5Y cells
Protocol: (§1) Human neuroblastoma cell line SH-SY5Y was obtained from the European Collection of Cell Cultures (ECACC, Salisbury, UK). The cells were maintained in 75 cm^2 flasks at 37 °C in a humidified atmosphere with 5% CO2 and cultured in RPMI 1640 medium, supplemented with 10% fetal bovine serum and 2 mM L-glutamine.
(§2) MTT (Sigma-Aldrich Chemie GmbH, Schnelldorf, Germany) assay is based on interaction between tetrazolium dye 3-(4,5-dimethylthiazol-2-yl)-2,5-diphenyltetrazolium bromide and succinic dehydrogenase in the living cells’ mitochondria. In this reaction, the formed purple formazan crystals indicate the presence of viable cells. SH-SY5Y cells were seeded in 96-well microplates at a density 2.5 × 10^4 cells/well and allowed to attach to the well surface at 37 °C in a humidified atmosphere with 5% CO2 (24 h). Different concentrations of compounds ([…]) were added to cells and incubated for 24 h. For each concentration, a set of at least 8 wells were used. After the treatment, the solution in each well was substituted with MTT (3-(4,5-dimethylthiazol-2-yl)-2,5-diphenyltetrazolium bromide) solution (0.5 mg/mL in culture medium). The microplates were further incubated for 3 h at 37 °C and the obtained formazan crystals were dissolved by 100 µL/well of DMSO. The absorbance was measured in a multiplate reader Synergy 2 (BioTek Instruments, Inc, Highland Park, Winooski, VT, USA) at 570 nm (690 nm for background absorbance).
(§3) An important step in the development of new pharmacologically active compounds is the establishment of their safety profile. An in vitro toxicity evaluation was carried out on the neuroblastoma cell line SH-SY5Y, which is a well-established model in neuroscience. The neuroblastoma SH-SY5Y are human derived cells with relatively homogeneous neuroblast-like structure. The cells express a dopamine-β-hydroxylase and tyrosine hydroxylase enzyme activity, specific types of human proteins and protein isoforms. The possible neurotoxic effects of the potential drug candidates were measured by cell viability assay (MTT-test). The IC50 values were used as a robust parameter for comparison. The test compounds were dissolved in DMSO and serially diluted in cell culture medium to achieve final concentrations ranging from 1 to 500 µM; the culture medium containing DMSO in the corresponding concentration was used as untreated controls. A concentration dependent effect on cell viability was observed after 24 h incubation.

SH-SY5Y cells = assay: MTT cytotoxicity on SH-SY5Y cells; format: cell-based, human; details: MTT test, 24 h incubation; read-out: IC50, in vitro cytotoxicity on SH-SY5Y cells
Protocol: as §1, §2, §3

[3] = target: T1, human recombinant MAO-B (hMAO-B) enzyme (Homo sapiens, UniProt P27338); assay: hMAO-B activity, Amplex UltraRed fluorometric method; format: biochemical; details: 1 µM
T1 construct: purchased Invitrogen, USA
T1 sequence (P27338 1-520): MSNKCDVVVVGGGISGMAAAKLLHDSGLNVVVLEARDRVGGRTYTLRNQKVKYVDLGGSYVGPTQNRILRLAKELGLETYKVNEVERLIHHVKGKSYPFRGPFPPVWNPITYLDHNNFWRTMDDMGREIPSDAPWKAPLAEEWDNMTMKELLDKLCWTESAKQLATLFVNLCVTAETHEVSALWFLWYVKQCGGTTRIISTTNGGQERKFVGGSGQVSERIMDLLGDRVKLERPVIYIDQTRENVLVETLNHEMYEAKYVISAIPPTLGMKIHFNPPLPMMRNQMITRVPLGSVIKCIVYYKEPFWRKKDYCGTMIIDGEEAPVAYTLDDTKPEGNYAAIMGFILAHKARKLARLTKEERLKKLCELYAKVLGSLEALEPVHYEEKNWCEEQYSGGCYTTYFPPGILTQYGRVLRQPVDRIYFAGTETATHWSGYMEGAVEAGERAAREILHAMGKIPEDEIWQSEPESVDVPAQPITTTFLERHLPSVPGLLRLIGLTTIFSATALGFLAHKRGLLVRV
Protocol: The effects of the test compounds on human recombinant MAO-B (hMAO-B) enzyme were studied by the Amplex UltraRed reagent (Sigma-Aldrich Chemie GmbH) fluorometric method with small modifications. The working solutions of the compounds, reagents, hMAO-B, and reaction buffers were prepared according to the producer’s instructions. The tyramine hydrochloride was used as a substrate. The reaction mixture contained a stock solution of Amplex Red (10 mM in dimethyl sulfoxide), the reaction buffer (0.05 M sodium phosphate) at pH 7.4, and the storage solution of horseradish peroxidase (10 U/mL). There were pure MAO-B working solutions in the reaction buffer and MAO-B working solution containing hydrogen peroxide as controls. The final concentration of the test compounds in the well was 1 μM. The compounds together with hMAO-B were embedded in a 96-well plate (8 wells for each compound), and then the plate was incubated for 30 min (dark, at 37 °C). Thereafter, the reaction was initiated by 50 μL Mix Solution: Amplex®Red reagent, horseradish peroxidase, and tyramine as an enzyme substrate in the reaction buffer. The fluorescence was measured every 30 min at 0, 30, 60, 90, 120, and 150 min), in dark, while shaking the reaction mixture at constant temperature of 37 °C. The fluorimetric measurements were assessed using a Synergy 2 Microplate Reader.
Monoamine oxidase B catalyzes dopamine metabolism and oxidation leading to the formation of reactive oxygen species and reactive quinones, which provoke dopamine neurotoxicity and neurodegeneration. In the next experiments, the compounds showing the best safety profile and the most promising neuroprotective activity (3d, 3e, 3h, 3i, 3m, 3n, 3p) were evaluated for their potential inhibitory activity on hMAOB. Selegiline and rasagiline as potent MAO-B inhibitors were used as standard compounds for comparison.

melting point [°C]	SMILES	sample/control absorbance ratio (% of the control), lecithin peroxidation [1]	IC50 at 24 h [2] [µM]	IC50 (SH-SY5Y cells) [µM]	inhibitory effect on hMAOB activity (in words) [3]	lecithin peroxidation effect compared with 3a (in words) [1]
	O=c1c(O)c(-c2ccc(O)c(O)c2)oc2cc(O)cc(O)c12 [Quercetin, reference compound]	around 25%				
	Cc1c(C)c2c(c(C)c1O)CCC(C)(C(=O)O)O2 (centres unmarked) [Trolox, reference compound]	around 25%				
223 to 224	O=C(CCn1c(=S)n(CCC(=O)NN=Cc2cccc(O)c2)c2ccccc21)NN=Cc1cccc(O)c1 [3f, 3,3′-(2-Thioxo-1H-benzo[d]imidazole-1,3(2H)-diyl)bis(N′-(3-hydroxybenzylidene)propanehydrazide)]		77.7			
284 to 286	COc1cc(C=NNC(=O)CCn2c(=S)n(CCC(=O)NN=Cc3cc(OC)c(O)c(OC)c3)c3ccccc32)cc(OC)c1O [3d, 3,3′-(2-Thioxo-1H-benzo[d]imidazole-1,3(2H)-diyl)bis(N′-(4-hydroxy-3,5-dimethoxybenzylidene)propanehydrazide)]	around 40%	> 250	268	statistically significant MAO-B inhibitory effects	
212 to 214	O=C(CCn1c(=S)n(CCC(=O)NN=Cc2ccc(O)c(O)c2)c2ccccc21)NN=Cc1ccc(O)c(O)c1 [3j, 3,3′-(2-Thioxo-1H-benzo[d]imidazole-1,3(2H)-diyl)bis(N′-(3,4-dihydroxybenzylidene)propanehydrazide)]	around 40%	187			
246 to 248	O=C(CCn1c(=S)n(CCC(=O)N/N=C/c2ccccc2)c2ccccc21)N/N=C/c1ccccc1 [3a]	66.52%	103			
255 to 257	COc1ccc(C=NNC(=O)CCn2c(=S)n(CCC(=O)NN=Cc3ccc(OC)c(O)c3)c3ccccc32)cc1O [3o, 3,3′-(2-Thioxo-1H-benzo[d]imidazole-1,3(2H)-diyl)bis(N′-(3-hydroxy-4-methoxybenzylidene)propanehydrazide)]		73.6			
281 to 283	O=C(CCn1c(=S)n(CCC(=O)NN=Cc2ccc(O)cc2)c2ccccc21)NN=Cc1ccc(O)cc1 [3g, 3,3′-(2-Thioxo-1H-benzo[d]imidazole-1,3(2H)-diyl)bis(N′-(4-hydroxybenzylidene)propanehydrazide)]		77.8			
174 to 176	COc1cc(/C=N/NC(=O)CCn2c(=S)n(CCC(=O)N/N=C/c3cc(O)c(O)c(OC)c3)c3ccccc32)cc(O)c1O [3q, 3,3′-(2-Thioxo-1H-benzo[d]imidazole-1,3(2H)-diyl)bis(N′-(3,4-hydroxy-5-methoxybenzylidene)propanehydrazide)]	around 40%	77.7			
268 to 270	COc1cccc(C=NNC(=O)CCn2c(=S)n(CCC(=O)NN=Cc3cccc(OC)c3O)c3ccccc32)c1O [3l, 3,3′-(2-Thioxo-1H-benzo[d]imidazole-1,3(2H)-diyl)bis(N′-(2-hydroxy-3-methoxybenzylidene)propanehydrazide)]		> 200	200		
229 to 231	COc1cc(C=NNC(=O)CCn2c(=S)n(CCC(=O)NN=Cc3ccc(O)c(OC)c3)c3ccccc32)ccc1O [3b, 3,3′-(2-Thioxo-1H-benzo[d]imidazole-1,3(2H)-diyl)bis(N′-(4-hydroxy-3-methoxybenzylidene)propanehydrazide)]		101			
205 to 207	COc1cc(O)ccc1C=NNC(=O)CCn1c(=S)n(CCC(=O)NN=Cc2ccc(O)cc2OC)c2ccccc21 [3p, 3,3′-(2-Thioxo-1H-benzo[d]imidazole-1,3(2H)-diyl)bis(N′-(4-hydroxy-2-methoxybenzylidene)propanehydrazide)]		> 250	254	statistically significant MAO-B inhibitory effects	
239 to 241	COc1ccc(C=NNC(=O)CCn2c(=S)n(CCC(=O)NN=Cc3ccc(OC)c(OC)c3)c3ccccc32)cc1OC [3c, 3,3′-(2-Thioxo-1H-benzo[d]imidazole-1,3(2H)-diyl)bis(N′-(3,4 dimethoxybenzylidene)propanehydrazide)]		112			statistically identical effect to 3a
272 to 274	COc1cccc(O)c1C=NNC(=O)CCn1c(=S)n(CCC(=O)NN=Cc2c(O)cccc2OC)c2ccccc21 [3n, 3,3′-(2-Thioxo-1H-benzo[d]imidazole-1,3(2H)-diyl)bis(N′-(2-hydroxy-6-methoxybenzylidene)propanehydrazide)]		> 250	269	statistically significant MAO-B inhibitory effects	
279 to 280	O=C(CCn1c(=S)n(CCC(=O)NN=Cc2ccc(O)c(O)c2O)c2ccccc21)NN=Cc1ccc(O)c(O)c1O [3k, 3,3′-(2-Thioxo-1H-benzo[d]imidazole-1,3(2H)-diyl)bis(N′-(2,3,4-trihydroxybenzylidene)propanehydrazide)]		65.3			statistically identical effect to 3a
